Test results from US20060111305A1, “Metabolites of certain [1,4]diazepino[6,7,1-ij]quinoline derivatives and methods of preparation and use thereof” (Wyeth, priority 2004, published 2006).
Like-named read-outs stand apart in the source and are kept apart here. Marks after values point to notes of the source that are not given here.

How the values were obtained:
[1] = Rat plasma metabolite profiles after single oral 5 mg/kg [14C]DCDQ; format: in vivo, Sprague-Dawley rats; settings: for concentration at 2 h / concentration at 8 h / concentration at 4 h: Sprague-Dawley, rat, plasma, mean n = 3, read-out: Estimated plasma concentration in rats
Method: Plasma samples were analyzed for metabolite profiles by HPLC. Aliquots of 1.5 mL plasma were mixed with 3.0 mL methanol, placed on ice for about 10 minutes, and then centrifuged. The supernatant was transferred to a clean tube. The protein pellets were extracted once with 3.0 mL methanol. The supernatants from precipitation and extraction of each sample were pooled, mixed, and evaporated at 22° C. under nitrogen in a Zymark TurboVap LV (Caliper Life Sciences, Hopkinton, Mass.) to about 0.3 mL. The concentrated extract was centrifuged, the supernatant volume measured and extraction efficiency was determined by analyzing duplicate 10 μL aliquots for radioactivity. An aliquot of the supernatant (50-200 μL) was analyzed by HPLC with radioactivity flow detection. Plasma extracts were also analyzed by LC/MS.
A Waters model 2690 HPLC system (Waters Corp., Milford, Mass.) with a built-in autosampler was used for analysis. Separations were accomplished on a Phenomenex Luna C18(2) column (150×2.0 mm, 5 μm) (Phenomenex, Torrance, Calif.). The sample chamber of the autosampler was maintained at 4° C., while the column was at ambient temperature of about 20° C. A variable wavelength UV detector set to monitor 250 nm and a Flo-One β Model A525 radioactivity detector described above were used for data acquisition. The HPLC mobile phase consisted of 10 mM ammonium acetate, pH 4.5 (A) and methanol (B), and was delivered at 0.2 mL/min. Chromatographic condition A was used for dose analysis, while condition B was used for analysis of urine and plasma, brain and fecal extracts.

[2] = system: cytochrome P450 (NADPH-dependent metabolism); test: Incubation of [14C]DCDQ with human liver microsomes (Km values, metabolite formation); format: in vitro ADME; settings: pH 7.4; 0.5 mg/mL human liver microsomes, [14C]DCDQ 0.5-100 μM, NADPH regenerating system, 20 min
Method: (§1) [^14C]DCDQ was mixed with non-radiolabeled DCDQ (1:3 or 1:5) in the incubations. Microsomal incubations consisted of [^14C]DCDQ, magnesium chloride (10 mM) and liver microsomes incubated in 0.5 mL of 0.1 M potassium phosphate buffer, pH 7.4. [^14C]DCDQ (20 μL) in water was added to the incubation tubes containing buffer, magnesium chloride solution and microsomes. After mixing, the tubes were pre-incubated for 2 minutes in a shaking water bath at 37° C. The reactions were initiated by the addition of UDPGA or the NADPH regenerating system. UDPGA was added to incubations as a 50 μL aliquot of a 20 mM solution in water, to give a final concentration of 2 mM. An NADPH regenerating system (30 μL) was added to incubations to evaluate CYP450-mediated metabolism. The NADPH regenerating system consisted of glucose-6-phosphate (2 mg/mL), glucose-6-phosphate dehydrogenase (0.8 units/mL) and NADP^+ (2 mg/mL). Control incubations were conducted under the same conditions, but without the NADPH generating system, UDPGA or microsomes. All incubations were performed in duplicate. Incubations were stopped by the addition of 0.5 mL ice-cold methanol. Samples were vortex-mixed. Denatured proteins were separated by centrifugation at 4300 rpm and 4° C. for 10 minutes (Model T21 super centrifuge, Sorvall). The protein pellets were extracted with 0.5 mL of methanol. The supernatant was combined for each sample, mixed and evaporated to a volume of about 0.3 mL under a nitrogen stream in a Zymark TurboVap LV evaporator (Caliper Life Science, Hopkinton, Mass.). The concentrated sample was centrifuged and aliquots were radioassayed and analyzed by HPLC. This method recovered an average of 92.1% of the radioactivity from the reaction mixture.
(§2) Initial rate conditions were determined for DCDQ metabolism in incubations with human liver microsomes in the presence of NADPH or UDPGA. Incubations for the time course study contained 20 μM of [^14C]DCDQ and 0.5 mg/mL of microsomal proteins, and were incubated at 37° C. with mild shaking for 0, 5, 10, 20, 30, 40, 50 and 60 minutes. The protein dependence study was conducted with 20 μM of [^14C]DCDQ incubated for 20 minutes with 0, 0.1, 0.25, 0.5, 0.75 and 1.0 mg/mL of microsomal proteins.
(§3) The Km values were determined with 0.5 mg/mL of human liver microsomes incubated with [^14C]DCDQ for 20 minutes with the NADPH regenerating system or for 10 minutes with UDPGA. [^14C]DCDQ concentrations used were 0.5,1, 5, 10, 25, 50, 75 and 100 μM.
(§4) To evaluate species differences in cytochrome P450- and UGT-mediated metabolism, [^14C]DCDQ was incubated for 20 minutes with 0.5 mg/mL liver microsomal proteins from mice, rats, dogs or humans in the presence of the NADPH regenerating system or UDPGA. The assay conditions were the same as described above, and DCDQ concentrations were 12 μM and 56 μM for cytochrome P450- and UGT-mediated metabolism, respectively.
(§5) A Waters model 2690 HPLC system (Waters Corp., Milford, Mass.) with a built-in autosampler was used for analysis. Separations were accomplished on a Phenomenex Luna C18(2) column (2×150 mm, 5 μm) (Phenomenex, Torrance, Calif.) coupled with a filter (4×2 mm) cartridge. A variable wavelength UV detector set to monitor 250 nm and Flo-One β Model A525 radioactivity flow detector (Perkin Elmer) with a 250 μL LQTR flow cell were used for data acquisition. The flow rate of Ultima Flow M scintillation fluid was 1 mL/min, providing a mixing ratio of scintillation cocktail to mobile phase of 5:1. The sample chamber in the autosampler was maintained at 4° C., while the column was at ambient temperature of about 20° C. The mobile phase consisted of 10 mM ammonium acetate, pH 4.5 (A) and methanol (B) and was delivered at 0.2 mL/min. The linear gradient conditions were as follows: […]

[3] = as above; format: in vitro ADME; settings: for metabolite detected in microsomal incubation: human
Method: as §1, §2, §3, §4, §5

[4] = NADPH regenerating system, 12 μM DCDQ, 20 min

| Compound | concentration at 2 h ([1]; female, 2 hr) [ng/mL] | concentration at 8 h ([1]; female, 8 hr) [ng/mL] | concentration at 2 h ([1]; male, 2 hr) [ng/mL] | concentration at 4 h ([1]; male, 4 hr) [ng/mL] | concentration at 8 h ([1]; male, 8 hr) [ng/mL] | Chromatographic distribution of radioactivity in rat plasma ([1]; female, 2 hr, mean n = 3) | Chromatographic distribution of radioactivity in rat plasma ([1]; female, 8 hr, mean n = 3) | Chromatographic distribution of radioactivity in rat plasma ([1]; male, 2 hr, mean n = 3) [%] | Chromatographic distribution of radioactivity in rat plasma ([1]; male, 4 hr, mean n = 3) [%] | Chromatographic distribution of radioactivity in rat plasma ([1]; male, 8 hr, mean n = 3) [%] | Km at 20 min [2] [µM] | metabolite detected in microsomal incubation [3, 4] | Estimated plasma concentration in rats ([1]; female, 2 hr, mean n = 3) | amount of metabolite detected ([3]; human liver microsomes, DCDQ 20 μM, both NADPH and UDPGA) | metabolite detected in microsomal incubation ([3]; UDPGA, 56 μM DCDQ) |
| --- | --- | --- | --- | --- | --- | --- | --- | --- | --- | --- | --- | --- | --- | --- | --- |
| c1cc2c3c(c1)[C@H]1CCC[C@H]1CN3CCNC2 [DCDQ, (9aR,12aS)-4,5,6,7,9,9a,10,11,12,12a-decahydro-cyclopenta[c][1,4]diazepine[6,7,1-ij]quinoline, reference compound] | 132 | 49.4 | 86.9 | 90.8 | 58.7 | 20% | 15% | 14 | 14 | 13 | – | – | – | – | – |
| OC1CN2C[C@@H]3CCC[C@@H]3c3cccc(c32)CN1 (stereo partly drawn) [Metabolite M1, hydroxy DCDQ] | 12.6 | 6.52 | 88.4 | 59.7 | 41.9 | 2.0^d % | 1.9^d % | 14 | 9.1 | 8.9 | 10.8 | detected | – | – | – |
| OC1[C@@H]2CCC[C@@H]2c2cccc3c2N1CCNC3 (stereo partly drawn) [Metabolite M2, hydroxy DCDQ] | – | 4.4 | 32.3 | 22.6 | 20 | BQL | 1.5^e % | 5.2 | 3.4 | 4.3 | 8.9 to 13.8 | detected | BQL | – | – |
| [O-][N+]12CCN=Cc3cccc(c31)[C@H]1CCC[C@H]1C2 (stereo partly drawn) [Metabolite M5, DCDQ imine N-oxide] | – | – | – | – | – | – | – | – | – | – | 36.2 | detected | – | – | – |
| O=C(O)[C@H]1O[C@@H](OC(=O)N2CCN3C[C@@H]4CCC[C@@H]4c4cccc(c43)C2)[C@H](O)[C@@H](O)[C@@H]1O [Metabolite M6, carbamoyl glucuronide of DCDQ] | – | – | – | – | – | – | – | – | – | – | – | – | – | only minor amounts | detected |
| O=C1CC[C@@H]2c3cccc4c3N(CCNC4)C[C@H]12 [Metabolite M7, 17-keto DCDQ] | 35.6 | 17.5 | 63.6 | 62.1 | 53 | 5.4^d % | 5.6% | 10 | 9.4 | 12 | – | – | – | – | – |
